{"source": "paper PMC12749127", "about": "(Scientific Reports, 2025)", "key": {"[1]": {"tested_on": "PI(4)P", "assay": "Immunofluorescence of PI", "format": "cell-based, human", "details": "imHC cells, 24 hours of treatment"}, "[2]": {"tested_on": "myo-inositol levels", "assay": "Cellular myo-inositol levels", "format": "cell-based", "details": "30 mM LiCl or 25 µM ebselen"}, "[3]": {"tested_on": "DENV-2", "assay": "IMPA1 silencing using siRNA, DENV-2 virus titer in imHC cells", "format": "cell-based", "details": "Dengue virus, DENV2, read-out: decrease of inhibitory effect of ebselen in si_IMPA1-silenced cells"}, "[4]": {"target": "T1, recombinant human inositol monophosphatase 1 (IMPA1) (Homo sapiens, UniProt P29218)", "T1 sequence (P29218 1-277)": "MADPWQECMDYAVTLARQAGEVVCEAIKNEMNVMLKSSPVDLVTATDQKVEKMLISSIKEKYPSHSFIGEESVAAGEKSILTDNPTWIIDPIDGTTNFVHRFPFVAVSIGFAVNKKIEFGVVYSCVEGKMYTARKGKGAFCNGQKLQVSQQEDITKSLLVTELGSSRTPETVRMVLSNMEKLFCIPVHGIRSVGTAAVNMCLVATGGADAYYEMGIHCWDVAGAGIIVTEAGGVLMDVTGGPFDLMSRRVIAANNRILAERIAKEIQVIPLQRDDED", "assay": "In vitro enzymatic assay of IMPA activity", "format": "biochemical"}, "[5]": {"tested_on": "PI(4)P and ZIKV-NS1", "assay": "Immunofluorescence of PI", "format": "cell-based", "details": "ZIKV-infected imHC cells, MOI 1, 48 hpi, ebselen treatment"}, "[6]": {"target": "recombinant bovine IMPA", "details": "read-out: inhibition constant (Ki); cited from earlier work"}, "[7]": {"tested_on": "IMPA", "details": "in vitro assays; cited from earlier work"}, "[8]": {"target": "recombinant human IMPA", "details": "read-out: inhibition constant (Ki); cited from earlier work"}}}
{"smiles": "O[C@H]1[C@H](O)[C@@H](O)[C@H](O)[C@@H](O)[C@H]1O", "note": "[inositol]", "values": [{"measurement": "PI(4)P levels following the addition of inositol (in words)", "setting": "[1]", "value": "increased levels"}]}
{"smiles": "O=c1c2ccccc2[se]n1-c1ccccc1", "note": "[Ebselen]", "values": [{"measurement": "myo-inositol levels vs untreated control (in words)", "setting": "[2]", "value": "significant reduction"}, {"measurement": "inhibition at 20 µM", "setting": "[3]", "value": "~16", "unit": "%"}, {"measurement": "IC50", "setting": "[4]", "value": 950, "unit": "nM"}, {"measurement": "PI(4)P levels (in words)", "setting": "[5]", "value": "reduction"}, {"measurement": "ZIKV-NS1 protein expression (in words)", "setting": "[5]", "value": "reduction"}]}
{"smiles": "[Cl-].[Li+]", "note": "[LiCl]", "values": [{"measurement": "myo-inositol levels vs untreated control (in words)", "setting": "[2]", "value": "significant reduction"}]}
{"smiles": "CC(Oc1ccc(O)cc1)(P(=O)(O)O)P(=O)(O)O", "note": "[L-690,330]", "values": [{"measurement": "Ki", "setting": "[6]", "value": 190, "unit": "nM"}, {"measurement": "potency relative to lithium (in words)", "setting": "[7]", "value": "approximately a thousand-fold greater potency than lithium"}, {"measurement": "Ki", "setting": "[8]", "value": 270, "unit": "nM"}]}
